Our source for the remaining activity values is PMC4579270, “Identification and Characterization of an Irreversible Inhibitor of CDK2” (Chemistry & Biology, 2015).

Common to all, as to format: biochemical
Assay [1] addresses MST3 (Homo sapiens, UniProt Q9Y6E0). Briefly: Dundee protein kinase screen. The following applies: MST3, 1µM; read-out: %Remaining activity at 1µM NU6300. In outline: (§1)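 Selectivity panel of 131 protein kinases, inhibitor tested at a single concentration of 1 µM; values are % kinase activity remaining, mean of duplicates. Re-test of selected kinases used 0.5 µM in the standard format and again after a 4 hour pre-incubation with the inhibitor.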

For assay [2], the target named is RSK2 (Homo sapiens, UniProt P51812). Kind of assay: Dundee protein kinase screen. The following applies: RSK2, 1µM; read-out: %Remaining activity at 1µM NU6300. The gist of the method: as §1
Assay [3] deals with Src (Homo sapiens, UniProt P12931). Briefly: Dundee protein kinase screen. As to conditions: read-out: %Remaining activity at 1µM NU6300. In outline:
as §1

Assay [4] deals with T1, TAK1 (Homo sapiens, UniProt O43318).
T1 sequence (O43318 1-303 limits assumed): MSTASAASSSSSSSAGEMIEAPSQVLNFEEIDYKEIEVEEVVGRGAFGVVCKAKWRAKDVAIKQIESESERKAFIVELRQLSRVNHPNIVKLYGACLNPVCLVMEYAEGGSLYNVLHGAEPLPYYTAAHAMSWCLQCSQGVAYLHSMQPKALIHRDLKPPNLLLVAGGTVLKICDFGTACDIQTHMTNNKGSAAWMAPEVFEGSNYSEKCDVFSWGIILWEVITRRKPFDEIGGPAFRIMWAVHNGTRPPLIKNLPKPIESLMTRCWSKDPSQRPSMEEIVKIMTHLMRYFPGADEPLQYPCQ
Kind of assay: Dundee protein kinase screen. As to conditions: TAK1, 1µM; read-out: %Remaining activity at 1µM NU6300. The gist of the method:
as §1

Assay [5] has as its target TESK1 (Homo sapiens, UniProt Q15569). Briefly: Dundee protein kinase screen. As to conditions: TESK1, 1µM; read-out: %Remaining activity at 1µM NU6300. In outline:
as §1

Assay [6] has as its target TLK1 (Homo sapiens, UniProt Q9UKI8). Briefly: Dundee protein kinase screen. As to conditions: TLK1, 1µM; read-out: %Remaining activity at 1µM NU6300. In outline:
as §1

The target in assay [7] is CHK2 (Homo sapiens, UniProt O96017). Kind of assay: Dundee kinase screen re-test (standard format and 4 hour pre-incubation). The following applies: CHK2, 0.5µM. As to the method: (§2) Prior to determining its cellular activity, we carried out a screen to assess its selectivity against a panel of 131 protein kinases under conditions that would not distinguish between a reversible or irreversible mode of action. […] These 13 kinases and 29 additional kinases, selected for their known sensitivity to other inhibitors within the purine series, were then tested in a modified screening format in which the assay was repeated following a 4-hr pre-incubation (Table S3B). […] However, conformational flexibility around the active site may promote such an interaction with a residue from another part of the structure ([Martin et al., 2012]).
Chain of CHK2 (O96017 whole entry): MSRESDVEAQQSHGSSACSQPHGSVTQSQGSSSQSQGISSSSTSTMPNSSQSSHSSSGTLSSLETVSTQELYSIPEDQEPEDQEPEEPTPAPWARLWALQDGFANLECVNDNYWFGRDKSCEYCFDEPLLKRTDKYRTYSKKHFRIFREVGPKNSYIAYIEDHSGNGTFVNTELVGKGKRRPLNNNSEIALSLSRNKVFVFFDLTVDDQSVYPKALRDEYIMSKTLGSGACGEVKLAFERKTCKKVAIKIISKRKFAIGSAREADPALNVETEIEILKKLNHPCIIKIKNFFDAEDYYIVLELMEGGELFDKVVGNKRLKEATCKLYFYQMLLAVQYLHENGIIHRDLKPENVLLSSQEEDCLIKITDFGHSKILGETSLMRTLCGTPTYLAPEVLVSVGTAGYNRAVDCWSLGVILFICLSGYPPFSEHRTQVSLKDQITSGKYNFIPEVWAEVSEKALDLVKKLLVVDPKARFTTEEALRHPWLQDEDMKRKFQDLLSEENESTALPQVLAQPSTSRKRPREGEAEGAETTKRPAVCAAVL
(§3) Table S3, Related to Figure 4. NCL-0006300 protein kinase selectivity. (A) NU6300 was tested at a single concentration of 1µM against 131 protein kinases present in a Dundee protein kinase screen (Bain et al., 2007). Values given are % activity remaining and are the average of duplicate measurements: 0-25% (red), 26-50% (yellow), 51-80% (black) and above 81% (green). The kinase domain sequences (as defined by UniProt) of […]
(§4) have a lysine residue at a position close to CDK2 Lys88 or Lys89. However, in the structure of tyrosine-protein kinase BTK (PDB ID: 3GEN) the residue equivalent to CDK2 Asp86 is Cys481 and therefore there is the potential for a covalent adduct to be formed through this side chain. Ephrin type-B receptor 3 (UniProt entry P54753) also encodes a cysteine residue (Cys717) that by sequence alignment would be predicted to be close to the CDK2 lysine pair. (B) Selected kinases were re-tested in the Dundee kinase screen against NU6300 at a single concentration of 0.5 µM both in the standard assay format and following a 4 hour pre-incubation in the presence of NU6300. Kinases which have very low activity after the 4 hour incubation so that results might not be wholly reliable are boxed in salmon. Kinases where the activity after a 4 hour pre-incubation is < 50% that in the standard assay format are highlighted in red.

In assay [8] the target is IRAK1 (Homo sapiens, UniProt P51617). Described as above. The following applies: IRAK1, 0.5µM. How it is done: as §2, §3, §4
Chain of IRAK1 (P51617 whole entry): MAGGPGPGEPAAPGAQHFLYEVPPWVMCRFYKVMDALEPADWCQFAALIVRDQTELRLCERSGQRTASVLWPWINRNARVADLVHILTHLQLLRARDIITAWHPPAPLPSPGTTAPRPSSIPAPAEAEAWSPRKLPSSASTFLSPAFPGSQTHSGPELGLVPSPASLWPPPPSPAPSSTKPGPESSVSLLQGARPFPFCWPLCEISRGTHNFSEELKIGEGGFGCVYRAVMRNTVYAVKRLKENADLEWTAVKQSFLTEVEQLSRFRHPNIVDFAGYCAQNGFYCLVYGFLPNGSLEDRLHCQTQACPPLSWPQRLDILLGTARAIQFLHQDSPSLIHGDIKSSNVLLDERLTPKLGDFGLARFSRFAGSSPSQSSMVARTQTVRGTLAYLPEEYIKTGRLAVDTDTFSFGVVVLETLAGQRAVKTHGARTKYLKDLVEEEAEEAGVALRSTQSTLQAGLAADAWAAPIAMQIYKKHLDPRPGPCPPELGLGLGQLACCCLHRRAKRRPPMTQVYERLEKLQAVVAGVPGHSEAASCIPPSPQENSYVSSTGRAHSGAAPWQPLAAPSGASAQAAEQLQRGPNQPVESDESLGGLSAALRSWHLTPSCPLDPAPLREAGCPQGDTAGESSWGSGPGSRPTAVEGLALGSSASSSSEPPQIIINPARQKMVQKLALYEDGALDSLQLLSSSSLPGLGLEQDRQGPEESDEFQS
The target in assay [9] is MARK1 (Homo sapiens, UniProt Q9P0L2). The description is as above. The following applies: MARK1, 0.5µM. How it is done:
as §2, §3, §4

Assay [10] has as its target VEG-FR1 (Homo sapiens, UniProt P17948). The assay is described as above. As to conditions: VEG-FR1, 0.5µM. As to the method:
as §2, §3, §4

The mark [11] stands for this setting: 4hr RT preincubation, read-out: %Remaining activity at 0.5µM NU6300 - 4hr RT preincubation.
Setting [12] is: usual format, read-out: %Remaining activity at 0.5µM NU6300 - Usual assay format.

Where two headings read alike, the source gives them in different places.

Chain of VEG-FR1 (P17948 27-1338): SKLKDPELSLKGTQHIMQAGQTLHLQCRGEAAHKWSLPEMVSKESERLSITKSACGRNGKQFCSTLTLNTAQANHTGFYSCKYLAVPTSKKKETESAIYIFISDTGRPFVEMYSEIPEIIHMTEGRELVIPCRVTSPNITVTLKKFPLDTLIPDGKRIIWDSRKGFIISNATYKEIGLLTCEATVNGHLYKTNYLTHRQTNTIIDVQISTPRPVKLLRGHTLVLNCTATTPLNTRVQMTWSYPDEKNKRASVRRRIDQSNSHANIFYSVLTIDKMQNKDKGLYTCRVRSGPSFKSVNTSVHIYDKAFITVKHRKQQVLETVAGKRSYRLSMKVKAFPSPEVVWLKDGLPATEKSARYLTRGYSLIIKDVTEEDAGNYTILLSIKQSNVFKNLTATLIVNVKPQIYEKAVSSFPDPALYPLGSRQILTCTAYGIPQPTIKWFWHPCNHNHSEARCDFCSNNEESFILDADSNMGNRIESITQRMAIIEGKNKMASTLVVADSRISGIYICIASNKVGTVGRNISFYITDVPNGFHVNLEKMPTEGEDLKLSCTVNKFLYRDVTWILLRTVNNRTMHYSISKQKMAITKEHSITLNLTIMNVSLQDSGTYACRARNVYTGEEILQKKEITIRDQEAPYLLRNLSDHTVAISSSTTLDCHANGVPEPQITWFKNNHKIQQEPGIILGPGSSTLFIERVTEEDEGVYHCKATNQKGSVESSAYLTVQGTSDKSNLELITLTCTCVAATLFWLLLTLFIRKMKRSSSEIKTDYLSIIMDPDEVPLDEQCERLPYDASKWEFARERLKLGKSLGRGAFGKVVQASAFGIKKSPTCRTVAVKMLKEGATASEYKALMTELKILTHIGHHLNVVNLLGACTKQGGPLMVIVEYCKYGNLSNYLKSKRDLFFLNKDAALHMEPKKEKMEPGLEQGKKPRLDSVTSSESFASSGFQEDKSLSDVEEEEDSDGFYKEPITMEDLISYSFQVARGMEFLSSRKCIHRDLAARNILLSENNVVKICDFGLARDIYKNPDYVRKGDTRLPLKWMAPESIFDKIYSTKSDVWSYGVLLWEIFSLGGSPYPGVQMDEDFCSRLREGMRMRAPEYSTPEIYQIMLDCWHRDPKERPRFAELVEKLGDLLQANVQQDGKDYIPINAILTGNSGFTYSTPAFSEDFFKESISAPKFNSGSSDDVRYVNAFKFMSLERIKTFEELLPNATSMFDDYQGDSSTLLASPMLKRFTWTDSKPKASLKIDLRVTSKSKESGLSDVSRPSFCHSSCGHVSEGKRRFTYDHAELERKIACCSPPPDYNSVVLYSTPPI
Chain of MARK1 (Q9P0L2 whole entry): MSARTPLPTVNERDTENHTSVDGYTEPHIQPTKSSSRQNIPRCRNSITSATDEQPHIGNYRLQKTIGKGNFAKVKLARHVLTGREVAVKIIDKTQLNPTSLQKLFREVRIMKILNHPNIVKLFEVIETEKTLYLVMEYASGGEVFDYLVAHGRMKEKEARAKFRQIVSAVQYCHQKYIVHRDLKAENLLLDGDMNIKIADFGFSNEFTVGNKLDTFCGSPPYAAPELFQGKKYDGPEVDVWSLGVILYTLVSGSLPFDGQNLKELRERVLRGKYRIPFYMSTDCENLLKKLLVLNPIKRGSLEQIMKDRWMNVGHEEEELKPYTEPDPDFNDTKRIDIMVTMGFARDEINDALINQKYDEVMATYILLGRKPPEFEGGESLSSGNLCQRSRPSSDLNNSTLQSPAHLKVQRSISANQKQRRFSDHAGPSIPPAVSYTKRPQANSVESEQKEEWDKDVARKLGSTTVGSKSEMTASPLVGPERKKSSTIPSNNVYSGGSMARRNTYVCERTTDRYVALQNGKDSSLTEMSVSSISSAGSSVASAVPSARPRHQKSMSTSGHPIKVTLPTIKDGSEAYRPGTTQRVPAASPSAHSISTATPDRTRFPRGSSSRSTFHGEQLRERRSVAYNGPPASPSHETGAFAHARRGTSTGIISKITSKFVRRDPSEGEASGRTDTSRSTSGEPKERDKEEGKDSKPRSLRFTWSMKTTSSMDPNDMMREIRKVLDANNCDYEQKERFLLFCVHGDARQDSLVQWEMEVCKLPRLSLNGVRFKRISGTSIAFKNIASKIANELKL
Chain of TESK1 (Q15569 whole entry): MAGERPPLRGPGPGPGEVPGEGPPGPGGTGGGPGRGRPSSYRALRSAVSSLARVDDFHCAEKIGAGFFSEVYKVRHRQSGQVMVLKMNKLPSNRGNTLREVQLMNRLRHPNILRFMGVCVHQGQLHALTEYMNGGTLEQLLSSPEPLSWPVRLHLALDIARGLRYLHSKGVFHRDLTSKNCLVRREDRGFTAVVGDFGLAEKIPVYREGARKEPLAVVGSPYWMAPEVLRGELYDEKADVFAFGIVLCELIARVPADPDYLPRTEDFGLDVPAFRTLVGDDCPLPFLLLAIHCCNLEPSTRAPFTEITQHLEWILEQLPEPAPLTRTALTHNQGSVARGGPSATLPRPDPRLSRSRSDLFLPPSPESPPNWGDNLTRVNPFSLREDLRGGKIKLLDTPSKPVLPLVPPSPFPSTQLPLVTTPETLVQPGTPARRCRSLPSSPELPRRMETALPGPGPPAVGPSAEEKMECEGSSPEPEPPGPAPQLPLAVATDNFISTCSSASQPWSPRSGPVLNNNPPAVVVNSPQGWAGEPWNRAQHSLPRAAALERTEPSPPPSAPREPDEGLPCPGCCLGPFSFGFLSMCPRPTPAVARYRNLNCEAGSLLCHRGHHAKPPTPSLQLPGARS
Chain of MST3 (Q9Y6E0 whole entry): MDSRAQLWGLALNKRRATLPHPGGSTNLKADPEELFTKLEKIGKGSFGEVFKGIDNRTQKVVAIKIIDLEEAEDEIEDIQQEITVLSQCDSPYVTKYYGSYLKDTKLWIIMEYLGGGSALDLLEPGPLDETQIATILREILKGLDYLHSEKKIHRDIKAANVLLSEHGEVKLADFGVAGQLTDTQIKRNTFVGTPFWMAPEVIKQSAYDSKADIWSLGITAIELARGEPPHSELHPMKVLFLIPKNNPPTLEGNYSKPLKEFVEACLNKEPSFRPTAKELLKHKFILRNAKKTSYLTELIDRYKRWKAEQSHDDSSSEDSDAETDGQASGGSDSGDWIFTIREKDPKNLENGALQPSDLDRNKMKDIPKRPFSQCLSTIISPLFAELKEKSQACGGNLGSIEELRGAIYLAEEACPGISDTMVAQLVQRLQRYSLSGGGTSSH
Chain of Src (P12931 whole entry): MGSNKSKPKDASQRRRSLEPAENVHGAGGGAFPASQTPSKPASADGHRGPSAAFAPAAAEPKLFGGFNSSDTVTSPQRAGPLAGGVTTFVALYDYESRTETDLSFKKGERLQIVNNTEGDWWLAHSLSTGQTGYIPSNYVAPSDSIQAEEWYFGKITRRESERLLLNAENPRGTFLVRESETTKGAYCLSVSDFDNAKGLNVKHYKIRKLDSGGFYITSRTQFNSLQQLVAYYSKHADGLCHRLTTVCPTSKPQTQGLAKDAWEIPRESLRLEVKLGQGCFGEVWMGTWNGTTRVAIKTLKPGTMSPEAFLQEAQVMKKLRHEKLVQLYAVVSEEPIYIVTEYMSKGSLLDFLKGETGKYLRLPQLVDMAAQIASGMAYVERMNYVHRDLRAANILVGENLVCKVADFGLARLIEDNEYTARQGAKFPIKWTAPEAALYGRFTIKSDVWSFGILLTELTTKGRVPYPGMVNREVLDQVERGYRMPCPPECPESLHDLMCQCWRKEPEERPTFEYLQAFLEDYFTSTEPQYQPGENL

As a reminder, the remaining activity is the signal under treatment as a percentage of the control signal. `C=CS(=O)(=O)c1ccc(Nc2nc(OCC3CCCCC3)c3nc[nH]c3n2)cc1` [NU6300, 6-(cyclohexylmethoxy)-N-(4-(vinylsulfonyl)phenyl)-9H-purin-2-amine]: the remaining activity at 1 µM in assay [1] worked out at 54%; in assay [2] it was 54%; in assay [3] it was 39%; in assay [4] it was 14%; in assay [5], 78%; in assay [6], 52%. For the same compound, the remaining activity at 0.5 µM worked out at 120% in assay [7] (setting [11]); 55% in [7] (setting [12]); 38% in [8] (setting [11]); 64% in [8] (setting [12]); 38% in [9] (setting [11]); 37% in [9] (setting [12]). Moreover, the values for the remaining activity at 0.5 µM in [10] (setting [11]) and in [10] (setting [12]) were 51% and 43%, respectively.
